Measured values published in ChEMBL document CHEMBL1667762, “Synthesis, antidepressant and antifungal evaluation of novel 2-chloro-8-methylquinoline amine derivatives” (Eur J Med Chem, 2011).
≈ marks a conversion by molar mass, not a printed value. Calls of active or inactive are those of the source. No cut-off for these calls is given here.

Columns and labels:
Aspergillus niger = experiment: Antifungal activity against Aspergillus niger MTCC 281 after 72 hrs; assay type: functional
Aspergillus flavus = experiment: Antifungal activity against Aspergillus flavus MTCC 277 after 72 hrs; assay type: functional; conditions: for MIC: Aspergillus flavus, MTCC 277, 72 h
[1] = Antifungal activity against Monascus purpureus MTCC 369 after 72 hrs; assay type: functional
Penicillium citrinum = experiment: Antifungal activity against Penicillium citrinum NCIM 768 after 72 hrs; assay type: functional
Rattus norvegicus [2] = organism: Rattus norvegicus; conditions: Brain, 5 uM
Description: Inhibition of MAO in rat brain homogenate at 5 uM using kynuramine as substrate by fluorimetry

Rattus norvegicus [3] = experiment: Antidepressant activity in Albino rat assessed as immobility time at 20 mg/kg, ip by forced swimming test (reference value: 112.4 +/- 2.88 sec); assay type: functional; conditions: route intraperitoneal
Rattus norvegicus [4] = organism: Rattus norvegicus; experiment: Neurotoxicity in rat assessed as impair in motor coordination at after 30 mins by rotarod test (reference value: 116.50 +/- 1.18 sec); assay type: toxicity, organism-based; conditions: in vivo, 0.5 h
Rattus norvegicus [5] = experiment: Antidepressant activity in Albino rat assessed as immobility time at 100 mg/kg, ip by forced swimming test (reference value: 112.4 +/- 2.88 sec); assay type: functional; conditions: route intraperitoneal
Rattus norvegicus [6] = experiment: Neurotoxicity in rat assessed as impair in motor coordination at 100 mg/kg, ip after 30 mins by rotarod test (reference value: 116.50 +/- 1.18 sec); assay type: toxicity, organism-based; design: dose 100 mg/kg, route intraperitoneal; conditions: in vivo, 0.5 h
Rattus norvegicus [7] = organism: Rattus norvegicus; experiment: Inhibition of MAO in rat brain homogenate at 0.0005 M using kynuramine as substrate by fluorimetry; assay type: tissue-based
[8] = Aspergillus niger, MTCC 281, 72 h
[9] = Penicillium citrinum, NCIM 768, 72 h

Row | SMILES | inhibition zone (IZ) (Aspergillus niger) | MIC (Aspergillus niger; [8]) [µg/mL] | inhibition zone (IZ) (Aspergillus flavus) [mm] | MIC (Aspergillus flavus) [µg/mL] | MIC [1] | inhibition zone (IZ) [1] | inhibition zone (IZ) (Penicillium citrinum) | MIC (Penicillium citrinum; [9]) [µg/mL] | inhibition (Rattus norvegicus [2]) [%] | MIC (Penicillium citrinum) | Time (Rattus norvegicus [3]) [s] | Time (Rattus norvegicus [4]) [s] | Time (Rattus norvegicus [5]) [s] | Time (Rattus norvegicus [6]) [s] | inhibition (Rattus norvegicus [7]) [%] | MIC (Aspergillus niger)
1 | COc1ccc(NCc2cc3cccc(C)c3nc2Cl)cc1 | 6.5 mm | 50 (≈ 160 µM) | 6.5 | 50 (≈ 160 µM) | 100 µg/mL (≈ 320 µM) | 5.5 mm | 6.5 mm | 100 (≈ 320 µM) |  |  |  |  |  |  |  | 
2 | N[C@@H]1C[C@H]1c1ccccc1.N[C@H]1C[C@@H]1c1ccccc1 |  |  |  |  |  |  |  |  | 91.6 |  |  |  |  |  |  | 
3 | Cc1ccccc1NCc1cc2cccc(C)c2nc1Cl | 6.5 mm | 100 (≈ 337 µM) | 7 | 100 (≈ 337 µM) | inactive | inactive | inactive |  |  | inactive |  |  |  |  |  | 
4 | CN(C)CCCN1c2ccccc2CCc2ccc(Cl)cc21 [CLOMIPRAMINE] |  |  |  |  |  |  |  |  |  |  | 63.4 | 110.83 |  |  |  | 
5 | Cc1cccc2cc(CNc3ccccc3Cl)c(Cl)nc12 | 5.5 mm | 50 (≈ 158 µM) | 6 | 50 (≈ 158 µM) | 100 µg/mL (≈ 315 µM) | 6.5 mm | 6 mm | 100 (≈ 315 µM) |  |  |  |  |  |  |  | 
6 | Cc1ccc(NCc2cc3cccc(C)c3nc2Cl)cc1 | 6 mm | 50 (≈ 168 µM) | 7 | 50 (≈ 168 µM) | 100 µg/mL (≈ 337 µM) | 7.5 mm | 6 mm | 100 (≈ 337 µM) |  |  |  |  | 96.6 | 96.5 |  | 
7 | Cc1cccc2cc(CNc3ccc(F)cc3)c(Cl)nc12 | 6 mm | 12.5 (≈ 41.6 µM) | 6 | 12.5 (≈ 41.6 µM) | 50 µg/mL (≈ 166 µM) | 8 mm | 7 mm | 50 (≈ 166 µM) |  |  |  |  | 80.4 | 91.33 | 19.6 | 
8 | Cc1cccc2cc(CNC3CCCCC3)c(Cl)nc12 | 5.5 mm | 200 (≈ 692 µM) | 5.5 | 200 (≈ 692 µM) | inactive | inactive | 5.5 mm | 200 (≈ 692 µM) |  |  |  |  | 76.6 | 97.17 | 20.6 | 
9 | Cc1cccc2cc(CNc3ccccc3)c(Cl)nc12 | 6 mm | 25 (≈ 88.4 µM) | 6.5 | 25 (≈ 88.4 µM) | 100 µg/mL (≈ 354 µM) | 7 mm | 6 mm | 100 (≈ 354 µM) |  |  |  |  | 103.2 | 100.33 |  | 
10 | Cc1cccc2cc(CNc3ccc(Cl)cc3)c(Cl)nc12 | 7.5 mm | 12.5 (≈ 39.4 µM) | 6.5 | 12.5 (≈ 39.4 µM) | 50 µg/mL (≈ 158 µM) | 7 mm | 6 mm | 50 (≈ 158 µM) |  |  |  |  | 77.2 | 95.17 | 23.5 | 
11 | Cc1cccc2cc(CNc3ccc(F)c(Cl)c3)c(Cl)nc12 | 8.5 mm | 12.5 (≈ 37.3 µM) | 8.5 | 12.5 (≈ 37.3 µM) | 25 µg/mL (≈ 74.6 µM) | 5.5 mm | 6 mm | 25 (≈ 74.6 µM) |  |  |  |  | 74.2 | 93.67 | 32.1 | 
12 | Cc1cccc2cc(CNCc3ccccc3)c(Cl)nc12 | 5.5 mm | 12.5 (≈ 42.1 µM) | 6 | 12.5 (≈ 42.1 µM) | 100 µg/mL (≈ 337 µM) | 7 mm | 6.5 mm | 100 (≈ 337 µM) |  |  |  |  | 78.4 | 98.33 |  | 
13 | Cc1cccc2cc(CNc3ccc([N+](=O)[O-])cc3)c(Cl)nc12 | 7 mm | 100 (≈ 305 µM) | 6.5 | 100 (≈ 305 µM) | inactive | inactive | inactive |  |  | inactive |  |  | 86.8 | 93.5 |  | 
14 | OC(Cn1cncn1)(Cn1cncn1)c1ccc(F)cc1F [FLUCONAZOLE] | 13.5 mm | 6.25 (≈ 20.4 µM) | 14.5 | 6.25 (≈ 20.4 µM) | 6.25 µg/mL (≈ 20.4 µM) | 11 mm | 12 mm | 6.25 (≈ 20.4 µM) |  |  |  |  |  |  |  | 
15 | Cc1cccc2cc(CNc3ccc(Br)cc3)c(Cl)nc12 | 5.5 mm | 25 (≈ 69.1 µM) | 6 | 25 (≈ 69.1 µM) | 100 µg/mL (≈ 276 µM) | 7 mm | 6.5 mm | 100 (≈ 276 µM) |  |  |  |  |  |  |  | 
16 | Cc1cccc(NCc2cc3cccc(C)c3nc2Cl)c1 | 6 mm | 100 (≈ 337 µM) | 5.5 | 100 (≈ 337 µM) | inactive | inactive | inactive |  |  | inactive |  |  |  |  |  | 
17 | CNCCC(Oc1ccc(C(F)(F)F)cc1)c1ccccc1 (stereo unspecified) [FLUOXETINE] | 10.5 mm | 6.25 (≈ 20.2 µM) |  | 6.25 (≈ 20.2 µM) | 6.25 µg/mL (≈ 20.2 µM) | 9 mm | 8 mm | 6.25 (≈ 20.2 µM) |  |  | 55.4 | 107.2 |  |  |  | 
18 | CCCCNCc1cc2cccc(C)c2nc1Cl | inactive |  | 5 | 200 (≈ 761 µM) | inactive | inactive | 5 mm | 200 (≈ 761 µM) |  |  |  |  | 97.2 | 92.34 |  | inactive
19 | Cc1cccc2cc(CNc3cccc(Cl)c3)c(Cl)nc12 | 5.5 mm | 12.5 (≈ 39.4 µM) | 6 | 12.5 (≈ 39.4 µM) | 50 µg/mL (≈ 158 µM) | 6.5 mm | 5.5 mm | 25 (≈ 78.8 µM) |  |  |  |  | 76.2 | 97.83 | 26.8 | 
20 | Cc1cccc2cc(CNc3ccc(Cl)c(Cl)c3)c(Cl)nc12 | 8 mm | 12.5 (≈ 35.5 µM) | 9 | 12.5 (≈ 35.5 µM) | 50 µg/mL (≈ 142 µM) | 8 mm | 6.5 mm | 25 (≈ 71.1 µM) |  |  |  |  | 73.6 | 90.83 | 35 | 
